Source: ChEMBL document CHEMBL5143685, “Valorisation of the diterpene podocarpic acid - Antibiotic and antibiotic enhancing activities of polyamine conjugates” (Bioorg Med Chem, 2022)
Converted amounts (≈) assume the structure as drawn.

How the values were obtained:
Staphylococcus aureus = experiment: Antibacterial activity against methicillin-resistant Staphylococcus aureus ATCC 43300 assessed as inhibition of bacterial growth measured after 18 hrs by resazurin dye based analysis; assay type: functional
Klebsiella pneumoniae = experiment: Antibacterial activity against Klebsiella pneumoniae ATCC 700603 assessed as inhibition of bacterial growth measured after 18 hrs by resazurin dye based analysis; assay type: functional
[1] = Cytotoxicity against HEK293 cells assessed as cell growth inhibition measured after 20 hrs by resazurin dye based assay; assay type: toxicity; conditions: human
Escherichia coli = experiment: Antibacterial activity against Escherichia coli ATCC 25922 assessed as inhibition of bacterial growth measured after 18 hrs by resazurin dye based analysis; assay type: functional
Cryptococcus neoformans = experiment: Antifungal activity against Cryptococcus neoformans ATCC 208821 assessed as fungal growth inhibition incubated for 36 hrs by resazurin dye based analysis; assay type: functional
Candida albicans = experiment: Antifungal activity against Candida albicans ATCC 90028 assessed as fungal growth inhibition incubated for 36 hrs by resazurin dye based analysis; assay type: functional
Pseudomonas aeruginosa = experiment: Antibacterial activity against Pseudomonas aeruginosa ATCC 27853 assessed as inhibition of bacterial growth measured after 18 hrs by resazurin dye based analysis; assay type: functional
Acinetobacter baumannii = experiment: Antibacterial activity against Acinetobacter baumannii ATCC 19606 assessed as inhibition of bacterial growth measured after 18 hrs by resazurin dye based analysis; assay type: functional

Molecule	MIC (Staphylococcus aureus)	MIC (Klebsiella pneumoniae)	IC50 at 20 h [1]	MIC (Escherichia coli)	MIC (Cryptococcus neoformans)	MIC (Candida albicans)	MIC (Pseudomonas aeruginosa)	MIC (Acinetobacter baumannii)
CN[C@H](CC(C)C)C(=O)N[C@H]1C(=O)N[C@@H](CC(N)=O)C(=O)N[C@H]2C(=O)N[C@H]3C(=O)N[C@H](C(=O)N[C@H](C(=O)O)c4cc(O)cc(O)c4-c4cc3ccc4O)[C@H](O)c3ccc(c(Cl)c3)Oc3cc2cc(c3O[C@@H]2O[C@H](CO)[C@@H](O)[C@H](O)[C@H]2O[C@H]2C[C@](C)(N)[C@H](O)[C@H](C)O2)Oc2ccc(cc2Cl)[C@H]1O [VANCOMYCIN]	0.7 µM (≈ 1.01 µg/mL)	–	–	–	–	–	–	–
C[C@]1(C(=O)NCCCNCCCCCCCCN)CCC[C@]2(C)c3cc(O)ccc3CC[C@@H]12.O=C(O)C(F)(F)F.O=C(O)C(F)(F)F	46.7 µM	> 46.7 µM	> 46.7 µM	> 46.7 µM	> 46.7 µM	> 46.7 µM	> 46.7 µM	> 46.7 µM
C[C@]1(C(=O)O)CCC[C@]2(C)c3cc(OC(=O)CCCNCCCCCCCCNCCCNC(=O)Oc4ccc5c(c4)[C@@]4(C)CCC[C@](C)(C(=O)O)[C@@H]4CC5)ccc3CC[C@@H]12.O=C(O)C(F)(F)F.O=C(O)C(F)(F)F	> 29.4 µM	> 29.4 µM	> 29.4 µM	> 29.4 µM	≤ 0.23 µM	14.7 µM	> 29.4 µM	> 29.4 µM
COC(=O)[C@@]1(C)CCC[C@]2(C)c3cc(OC(=O)CCCNCCCCCCCCNCCCNC(=O)Oc4ccc5c(c4)[C@@]4(C)CCC[C@](C)(C(=O)OC)[C@@H]4CC5)ccc3CC[C@@H]12.O=C(O)C(F)(F)F.O=C(O)C(F)(F)F	≤ 0.22 µM	> 28.7 µM	> 28.7 µM	> 28.7 µM	0.45 µM	≤ 0.22 µM	> 28.7 µM	> 28.7 µM
C[C@H]1c2cccc(O)c2C(=O)C2=C(O)[C@]3(O)C(=O)C(C(N)=O)=C(O)[C@@H](N(C)C)[C@@H]3[C@@H](O)[C@@H]21 [DOXYCYCLINE]	–	–	–	–	–	–	90 µM (≈ 40 µg/mL)	–
C[C@]1(C(=O)O)CCC[C@]2(C)c3cc(O)ccc3CC[C@@H]12 [PODOCARIC ACID]	> 117 µM	> 117 µM	–	> 117 µM	> 117 µM	> 117 µM	> 117 µM	> 117 µM
C[C@]1(C(=O)O)CCC[C@]2(C)c3cc(OC(=O)NCCCNCCCCCCCCCCN)ccc3CC[C@@H]12	> 42.2 µM	> 42.2 µM	–	> 42.2 µM	> 42.2 µM	> 42.2 µM	> 42.2 µM	> 42.2 µM
C[C@@]12CCC[C@](C)(C(=O)O)[C@H]1CCc1ccc(OC(=O)CCCNCCCCNCCCNC(=O)Oc3ccc4c(c3)[C@@]3(C)CCC[C@](C)(C(=O)O)[C@@H]3CC4)cc12.O=C(O)C(F)(F)F.O=C(O)C(F)(F)F	> 31 µM	> 31 µM	> 31 µM	> 31 µM	7.76 µM	7.76 µM	> 31 µM	> 31 µM
CCCCCNC(=O)[C@@]1(C)CCC[C@]2(C)c3cc(OC(=O)CCCNCCCCCCNCCCNC(=O)Oc4ccc5c(c4)[C@@]4(C)CCC[C@](C)(C(=O)NCCCCC)[C@@H]4CC5)ccc3CC[C@@H]12.O=C(O)C(F)(F)F.O=C(O)C(F)(F)F	≤ 0.21 µM	> 26.7 µM	> 26.7 µM	> 26.7 µM	6.68 µM	1.67 µM	> 26.7 µM	> 26.7 µM
CCCCCNC(=O)[C@@]1(C)CCC[C@]2(C)c3cc(OC(=O)CCCNCCCCNCCCNC(=O)Oc4ccc5c(c4)[C@@]4(C)CCC[C@](C)(C(=O)NCCCCC)[C@@H]4CC5)ccc3CC[C@@H]12.O=C(O)C(F)(F)F.O=C(O)C(F)(F)F	≤ 0.21 µM	> 27.4 µM	> 27.4 µM	> 27.4 µM	> 27.4 µM	13.7 µM	> 27.4 µM	> 27.4 µM
COC(=O)[C@@]1(C)CCC[C@]2(C)c3cc(OC(=O)CCCNCCCCCCCCCCCCNCCCNC(=O)Oc4ccc5c(c4)[C@@]4(C)CCC[C@](C)(C(=O)OC)[C@@H]4CC5)ccc3CC[C@@H]12.O=C(O)C(F)(F)F.O=C(O)C(F)(F)F	≤ 0.21 µM	> 27.3 µM	> 27.3 µM	> 27.3 µM	0.43 µM	≤ 0.21 µM	> 27.3 µM	> 27.3 µM
COC(=O)[C@@]1(C)CCC[C@]2(C)c3cc(OC(=O)CCCNCCCCCCCNCCCNC(=O)Oc4ccc5c(c4)[C@@]4(C)CCC[C@](C)(C(=O)OC)[C@@H]4CC5)ccc3CC[C@@H]12.O=C(O)C(F)(F)F.O=C(O)C(F)(F)F	≤ 0.23 µM	> 29.1 µM	> 29.1 µM	> 29.1 µM	7.26 µM	≤ 0.23 µM	> 29.1 µM	> 29.1 µM
C[C@]1(C(=O)NCCCNCCCCCCCCCCNCCCNC(=O)[C@@]2(C)CCC[C@]3(C)c4cc(O)ccc4CC[C@@H]23)CCC[C@]2(C)c3cc(O)ccc3CC[C@@H]12.O=C(O)C(F)(F)F.O=C(O)C(F)(F)F	≤ 0.24 µM	> 31.1 µM	0.87 µM	> 31.1 µM	3.89 µM	> 32.1 µM	> 31.1 µM	> 32.1 µM
COC(=O)[C@@]1(C)CCC[C@]2(C)c3cc(OC(=O)CCCNCCCCCCCCCCNCCCNC(=O)Oc4ccc5c(c4)[C@@]4(C)CCC[C@](C)(C(=O)OC)[C@@H]4CC5)ccc3CC[C@@H]12.O=C(O)C(F)(F)F.O=C(O)C(F)(F)F	3.5 µM	> 28 µM	1.3 µM	> 28 µM	≤ 0.22 µM	≤ 0.22 µM	> 28 µM	> 28 µM
CCCCCNC(=O)[C@@]1(C)CCC[C@]2(C)c3cc(OC(=O)CCCNCCCCCCCCNCCCNC(=O)Oc4ccc5c(c4)[C@@]4(C)CCC[C@](C)(C(=O)NCCCCC)[C@@H]4CC5)ccc3CC[C@@H]12.O=C(O)C(F)(F)F.O=C(O)C(F)(F)F	1.63 µM	> 26.1 µM	> 26.1 µM	> 26.1 µM	≤ 0.2 µM	≤ 0.2 µM	> 26.1 µM	> 26.1 µM
C[C@]1(C(=O)O)CCC[C@]2(C)c3cc(OC(=O)NCCCNCCCCCCCCCCCCN)ccc3CC[C@@H]12.O=C(O)C(F)(F)F.O=C(O)C(F)(F)F	> 32.8 µM	> 32.8 µM	> 32.8 µM	> 32.8 µM	> 32.8 µM	32.8 µM	> 32.8 µM	> 32.8 µM
CCCCCNC(=O)[C@@]1(C)CCC[C@]2(C)c3cc(OC(=O)CCCNCCCCCCCCCCNCCCNC(=O)Oc4ccc5c(c4)[C@@]4(C)CCC[C@](C)(C(=O)NCCCCC)[C@@H]4CC5)ccc3CC[C@@H]12.O=C(O)C(F)(F)F.O=C(O)C(F)(F)F	≤ 0.2 µM	> 25.5 µM	> 25.5 µM	> 25.5 µM	3.19 µM	≤ 0.2 µM	> 25.5 µM	> 25.5 µM
COLISTIN	–	0.2 µM	–	0.1 µM	–	–	0.2 µM	0.2 µM
C[C@]1(C(=O)NCCCNCCCCCCCNCCCNC(=O)[C@@]2(C)CCC[C@]3(C)c4cc(O)ccc4CC[C@@H]23)CCC[C@]2(C)c3cc(O)ccc3CC[C@@H]12.O=C(O)C(F)(F)F.O=C(O)C(F)(F)F	32.5 µM	> 32.5 µM	19.1 µM	32.5 µM	32.5 µM	32.5 µM	> 32.5 µM	> 32.5 µM
C[C@]1(C(=O)O)CCC[C@]2(C)c3cc(OC(=O)CCCNCCCCCCCCCCCCNCCCNC(=O)Oc4ccc5c(c4)[C@@]4(C)CCC[C@](C)(C(=O)O)[C@@H]4CC5)ccc3CC[C@@H]12.O=C(O)C(F)(F)F.O=C(O)C(F)(F)F	14 µM	> 28 µM	> 28 µM	> 28 µM	3.5 µM	> 28 µM	> 28 µM	> 28 µM
C[C@]1(C(=O)NCCCNCCCCN)CCC[C@]2(C)c3cc(O)ccc3CC[C@@H]12	> 50.8 µM	> 50.8 µM	–	> 50.8 µM	> 50.8 µM	> 50.8 µM	> 50.8 µM	> 50.8 µM
COC(=O)[C@@]1(C)CCC[C@]2(C)c3cc(OC(=O)CCCNCCCCCCNCCCNC(=O)Oc4ccc5c(c4)[C@@]4(C)CCC[C@](C)(C(=O)OC)[C@@H]4CC5)ccc3CC[C@@H]12.O=C(O)C(F)(F)F.O=C(O)C(F)(F)F	≤ 0.23 µM	> 29.4 µM	4.68 µM	14.7 µM	0.46 µM	≤ 0.23 µM	> 29.4 µM	> 29.4 µM
C[C@]1(C(=O)NCCCNCCCCCCNCCCNC(=O)[C@@]2(C)CCC[C@]3(C)c4cc(O)ccc4CC[C@@H]23)CCC[C@]2(C)c3cc(O)ccc3CC[C@@H]12.O=C(O)C(F)(F)F.O=C(O)C(F)(F)F	32.9 µM	> 32.9 µM	28.6 µM	32.9 µM	32.9 µM	32.9 µM	> 32.9 µM	> 32.9 µM
C[C@]1(C(=O)O)CCC[C@]2(C)c3cc(OC(=O)NCCCNCCCCN)ccc3CC[C@@H]12	> 47.5 µM	> 47.5 µM	–	> 47.5 µM	> 47.5 µM	> 47.5 µM	> 47.5 µM	> 47.5 µM
CC[C@H]1OC(=O)[C@H](C)[C@@H](O[C@H]2C[C@@](C)(OC)[C@@H](O)[C@H](C)O2)[C@H](C)[C@@H](O[C@@H]2O[C@H](C)C[C@H](N(C)C)[C@H]2O)[C@](C)(O)C[C@@H](C)C(=O)[C@H](C)[C@@H](O)[C@]1(C)O [ERYTHROMYCIN]	–	–	–	174 µM (≈ 128 µg/mL)	–	–	–	–
OC(Cn1cncn1)(Cn1cncn1)c1ccc(F)cc1F [FLUCONAZOLE]	–	–	–	–	26 µM (≈ 7.96 µg/mL)	0.4 µM (≈ 0.123 µg/mL)	–	–
